Measured values from patent publication US20120121591A1 (priority 2009, published 2012).
Read-outs that look alike come from different tables or passages of the source. Positions of bridges follow the written chain, without caps; N, C: chain ends. Non-standard residues stand in square brackets, D forms with d. Residues, ends and D or L forms follow the SMILES beside them. Nva = CCC[C@H](N)C(=O)O

Legend:
[1] = system: IL-2 secretion from T cells in human whole blood; type: cell-based
hKv1.7 = hKv1.7 (Homo sapiens, UniProt Q96RP8); type: cell-based; settings: PatchXpress; read-out: Kv1.7 IC50
Chain of hKv1.7 (Q96RP8 whole entry): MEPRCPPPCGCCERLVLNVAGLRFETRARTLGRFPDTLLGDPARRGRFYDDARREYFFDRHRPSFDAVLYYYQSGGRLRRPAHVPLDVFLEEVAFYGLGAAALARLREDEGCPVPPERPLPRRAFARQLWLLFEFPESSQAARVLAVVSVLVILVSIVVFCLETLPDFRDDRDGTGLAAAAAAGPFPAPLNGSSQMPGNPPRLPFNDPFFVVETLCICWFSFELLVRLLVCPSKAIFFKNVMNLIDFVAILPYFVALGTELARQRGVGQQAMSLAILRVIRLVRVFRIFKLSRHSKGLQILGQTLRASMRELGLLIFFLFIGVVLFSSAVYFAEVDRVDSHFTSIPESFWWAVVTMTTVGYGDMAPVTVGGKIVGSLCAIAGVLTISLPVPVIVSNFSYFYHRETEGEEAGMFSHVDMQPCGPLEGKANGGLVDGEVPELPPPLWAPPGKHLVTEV
Procedure: (§1) Kv1.1, Kv1.2, Kv1.3, Kv1.4, Kv1.6 and Kv1.7, PatchXpress®, planar patch-clamp electrophysiology. Ion channel currents were recorded at room temperature using PatchXpress® 7000A electrophysiology system from MDC using methods and cells described in Example 1 above.

hKv1.2 = hKv1.2 (Homo sapiens, UniProt P16389); type: cell-based; settings: PatchXpress; read-out: Kv1.2 IC50
Chain of hKv1.2 (P16389 whole entry): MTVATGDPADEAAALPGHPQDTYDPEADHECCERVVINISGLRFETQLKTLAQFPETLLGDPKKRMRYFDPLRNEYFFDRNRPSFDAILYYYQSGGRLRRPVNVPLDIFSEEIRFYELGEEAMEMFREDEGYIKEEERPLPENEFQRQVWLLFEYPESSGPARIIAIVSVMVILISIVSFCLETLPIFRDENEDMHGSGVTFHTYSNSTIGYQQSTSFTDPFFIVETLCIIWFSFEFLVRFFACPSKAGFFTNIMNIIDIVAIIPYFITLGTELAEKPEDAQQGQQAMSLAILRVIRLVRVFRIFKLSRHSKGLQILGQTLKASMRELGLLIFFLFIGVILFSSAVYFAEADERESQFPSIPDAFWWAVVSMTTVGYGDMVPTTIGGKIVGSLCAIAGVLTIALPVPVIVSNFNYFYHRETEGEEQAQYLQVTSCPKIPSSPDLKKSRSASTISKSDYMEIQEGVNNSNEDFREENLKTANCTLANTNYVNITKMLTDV
Procedure: as §1

hKv1.4 = hKv1.4 (Homo sapiens, UniProt P22459); type: cell-based; settings: PatchXpress; read-out: Kv1.4 IC50
Chain of hKv1.4 (P22459 whole entry): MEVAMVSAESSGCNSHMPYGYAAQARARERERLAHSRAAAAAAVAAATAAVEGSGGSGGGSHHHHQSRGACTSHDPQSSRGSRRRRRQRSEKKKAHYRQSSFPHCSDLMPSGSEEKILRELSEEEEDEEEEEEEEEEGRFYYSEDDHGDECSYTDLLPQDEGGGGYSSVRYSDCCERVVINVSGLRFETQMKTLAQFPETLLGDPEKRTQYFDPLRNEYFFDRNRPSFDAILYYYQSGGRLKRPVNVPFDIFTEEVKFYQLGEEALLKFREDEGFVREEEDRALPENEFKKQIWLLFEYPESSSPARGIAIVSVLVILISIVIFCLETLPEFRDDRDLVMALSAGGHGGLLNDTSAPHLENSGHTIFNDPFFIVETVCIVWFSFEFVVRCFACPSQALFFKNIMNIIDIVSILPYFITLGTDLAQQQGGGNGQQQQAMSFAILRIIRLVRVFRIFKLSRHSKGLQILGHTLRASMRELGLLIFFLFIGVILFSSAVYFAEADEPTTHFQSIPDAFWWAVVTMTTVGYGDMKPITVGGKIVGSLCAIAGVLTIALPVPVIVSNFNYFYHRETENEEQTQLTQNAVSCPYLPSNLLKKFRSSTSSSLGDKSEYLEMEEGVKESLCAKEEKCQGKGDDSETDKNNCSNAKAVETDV
Procedure: as §1

hKv1.6 = hKv1.6 (Homo sapiens, UniProt P17658); type: cell-based; settings: PatchXpress; read-out: Kv1.6 IC50
Chain of hKv1.6 (P17658 whole entry): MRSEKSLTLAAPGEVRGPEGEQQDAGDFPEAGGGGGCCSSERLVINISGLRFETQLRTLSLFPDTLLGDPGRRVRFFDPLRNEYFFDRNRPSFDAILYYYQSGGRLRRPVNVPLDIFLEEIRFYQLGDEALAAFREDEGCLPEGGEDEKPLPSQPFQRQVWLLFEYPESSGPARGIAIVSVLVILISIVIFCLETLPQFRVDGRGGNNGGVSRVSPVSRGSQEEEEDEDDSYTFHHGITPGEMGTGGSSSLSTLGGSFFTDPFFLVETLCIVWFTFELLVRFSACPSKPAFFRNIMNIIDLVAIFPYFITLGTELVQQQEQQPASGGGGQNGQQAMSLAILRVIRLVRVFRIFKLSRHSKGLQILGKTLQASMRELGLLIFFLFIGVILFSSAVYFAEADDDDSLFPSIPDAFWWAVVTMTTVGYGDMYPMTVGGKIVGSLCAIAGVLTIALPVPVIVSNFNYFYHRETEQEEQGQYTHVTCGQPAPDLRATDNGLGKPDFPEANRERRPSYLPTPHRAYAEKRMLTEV
Procedure: as §1

[2] = system: rat T effector memory cell line, PAS; type: cell-based; settings: read-out: IC50 inhibition of myelin-specific proliferation of PAS T cells
[3] = type: in vivo, rat
Description: Single subcutaneous doses were delivered to animals and serum was collected at various time points after injection. Studies in rats, dogs (beagles), and cynomolgus monkeys involved two to three animals per dose group, with blood and serum collection occurring at various time points over the course of the study. Male Sprague-Dawley (SD) rats (about 0.3 kg), male beagles (about 10 kg) and male cynomolgus monkeys (about 4 kg) were used in the studies described herein (n=3 animals per dose group). Approximately 5 male CD-1 mice were used per dose and time point in our mouse pharmacokinetic studies. Serum samples were stored frozen at −80° C., until analysis in an enzyme-linked immunosorbent assay (ELISA).
Single subcutaneous doses were delivered to animals and serum was collected at various time points after injection. Three animals were used per dose group, with blood and serum collection occurring at various time points over the course of the study. Serum samples were stored frozen at −80° C., until analysis in an enzyme-linked immunosorbent assay (ELISA). […] A brief description of these ELISA protocols is provided: […]

human Kv1.3 = human Kv1.3 (Homo sapiens, UniProt P22001); type: cell-based; settings: read-out: Kv1.3 IC50, whole cell patch clamp
Chain of human Kv1.3 (P22001 whole entry): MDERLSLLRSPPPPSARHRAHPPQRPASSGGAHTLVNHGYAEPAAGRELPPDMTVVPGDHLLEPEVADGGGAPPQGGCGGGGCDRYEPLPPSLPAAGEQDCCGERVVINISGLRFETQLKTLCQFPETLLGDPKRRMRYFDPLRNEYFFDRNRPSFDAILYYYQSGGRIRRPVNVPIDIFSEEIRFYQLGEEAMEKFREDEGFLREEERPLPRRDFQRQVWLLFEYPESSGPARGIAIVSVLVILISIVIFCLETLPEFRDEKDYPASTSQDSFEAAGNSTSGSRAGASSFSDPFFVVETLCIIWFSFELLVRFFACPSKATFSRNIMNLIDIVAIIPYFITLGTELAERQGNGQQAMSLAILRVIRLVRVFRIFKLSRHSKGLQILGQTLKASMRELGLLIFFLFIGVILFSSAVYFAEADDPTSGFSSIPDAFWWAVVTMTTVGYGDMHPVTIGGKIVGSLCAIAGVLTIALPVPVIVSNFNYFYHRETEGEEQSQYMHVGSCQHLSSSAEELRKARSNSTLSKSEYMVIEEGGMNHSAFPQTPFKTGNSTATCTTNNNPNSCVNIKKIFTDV

hKv1.5 = hKv1.5 (Homo sapiens, UniProt P22460); settings: read-out: Kv1.5 IC50; PatchXpress
Chain of hKv1.5 (P22460 whole entry): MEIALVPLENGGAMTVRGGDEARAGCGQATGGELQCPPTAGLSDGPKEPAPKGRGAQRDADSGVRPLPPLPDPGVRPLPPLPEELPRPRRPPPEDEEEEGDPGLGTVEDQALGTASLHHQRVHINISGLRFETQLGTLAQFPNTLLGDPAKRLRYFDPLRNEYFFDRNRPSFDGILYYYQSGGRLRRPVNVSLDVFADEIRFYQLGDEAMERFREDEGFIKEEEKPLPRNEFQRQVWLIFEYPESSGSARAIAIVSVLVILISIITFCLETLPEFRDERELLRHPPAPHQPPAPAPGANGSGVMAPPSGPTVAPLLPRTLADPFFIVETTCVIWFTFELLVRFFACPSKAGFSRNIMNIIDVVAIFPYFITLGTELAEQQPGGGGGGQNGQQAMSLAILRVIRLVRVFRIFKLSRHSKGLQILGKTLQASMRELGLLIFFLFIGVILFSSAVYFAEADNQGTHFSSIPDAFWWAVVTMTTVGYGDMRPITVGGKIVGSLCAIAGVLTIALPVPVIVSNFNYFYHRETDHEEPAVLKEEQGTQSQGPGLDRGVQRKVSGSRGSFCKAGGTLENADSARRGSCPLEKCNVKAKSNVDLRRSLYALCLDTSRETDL

[4] = system: IFN-g secretion from T cells in human whole blood; type: cell-based
hKv1.3 [5] = target: T1, hKv1.3 (Homo sapiens, UniProt P22001); test: cell-based; type: cell-based; settings: for IC50: Kv1.3 (IWQ) IC50 (nM, Avg)
T1 sequence (P22001 whole entry): as the sequence (P22001 whole entry) above

hKv1.3 [6] = target: T1, hKv1.3; test: cell-based
hKv1.1 = hKv1.1 (Homo sapiens, UniProt Q09470); test: cell-based; settings: Kv1.1 (IWQ) IC50 (nM, Avg)
Chain of hKv1.1 (Q09470 whole entry): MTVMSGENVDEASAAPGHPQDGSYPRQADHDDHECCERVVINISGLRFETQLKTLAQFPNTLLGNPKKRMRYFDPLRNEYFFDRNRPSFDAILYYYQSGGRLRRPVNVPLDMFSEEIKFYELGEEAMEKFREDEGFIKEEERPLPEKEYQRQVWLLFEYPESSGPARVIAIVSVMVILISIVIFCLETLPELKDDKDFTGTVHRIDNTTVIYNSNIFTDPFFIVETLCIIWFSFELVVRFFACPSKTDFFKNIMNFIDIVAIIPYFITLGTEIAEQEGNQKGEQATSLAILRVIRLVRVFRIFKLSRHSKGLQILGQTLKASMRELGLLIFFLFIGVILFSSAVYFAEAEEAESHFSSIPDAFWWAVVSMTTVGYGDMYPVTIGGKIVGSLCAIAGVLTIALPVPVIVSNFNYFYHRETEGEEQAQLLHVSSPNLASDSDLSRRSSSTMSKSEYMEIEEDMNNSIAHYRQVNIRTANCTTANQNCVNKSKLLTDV

[7] = type: in vivo, rat; settings: male SD rats, single SC dose
Procedure: Hypoactivity and lateral recumbence were also observed at 0.4 mg/kg. […] The severity of swelling was not dose dependent, and all clinical observations noted in all groups that survived to their scheduled euthanasia resolved by approximately 24 hours postdose. […] Other changes noted at lower doses were limited to decreased lymphocytes and triglycerides at 0.4 mg/kg.
All clinical signs were resolved by day 11. […] Hematologic effects in animals given ≧0.5 mg/kg/day were consistent with increased red cell turnover, and correlated with increased spleen weights, and increased splenic hemopoiesis.
Exposures increased with increasing dose up to 2.5 mg/kg, but exposures were similar in rats given 2.5 and 5.0 mg/kg. […] There was a decrease in body weight and body weight gain noted in the 2.5 and 5.0 mg/kg/dose groups. […] Urine chemistry values were increased in a few animals/group at 0.5 or 2.0 mg/kg/day, but these changes were inconsistent among and within animals, and considered unlikely to be related to treatment. There were no test article-related effects on biomarkers of renal injury (beta-2 microglobulin, calbindin, clusterin, cystatin C, glutathione S-transferase alpha, kidney injury molecule-1, neutrophil gelatinase-associated lipocalin, osteopontin, tissue inhibitor of metalloproteinase-1, and vascular endothelial growth factor). […]

[8] = Sprague-Dawley rats, single SC 6 mg/kg
[9] = read-out: WB (IL-2) IC50 (nM, Avg)
[10] = read-out: WB (IFNg) IC50 (nM, Avg)

“Monovalent aKLH HC-ShK(1-35 Q16K) Ab: anti-KLH IgG2 antibody with [Lys16]ShK fused to the C-terminus of one heavy chain” gave an IC50 ([1]; read-out: WB (IL-2) IC50) of 0.292 nM, an IC50 (hKv1.7) greater than 10000 nM and an IC50 (hKv1.2) of 7970 nM. For the same molecule, the IC50 (hKv1.4) was greater than 10000 nM, the IC50 (hKv1.6) was greater than 616 nM and the IC50 [2] was 0.839 nM. The “Exposure (AUC0-inf) normalized for MW, times greater than ShK-L5” value ([3]; 150 kDa//4 kDa) was “about 163 times”, the AUC0-t [3, 8] was 481 ± 157 µg·h/mL and the Cmax [3, 8] was 5890 ± 1770 ng/mL. For the same molecule, the HL [3, 8] was 32 ± 13.9 h, the Tmax [3, 8] was 32 ± 13.9 h and the IC50 (human Kv1.3) was 0.354 nM. For the same molecule, the IC50 (hKv1.5) was greater than 10000 nM and the IC50 ([4]; read-out: WB (IFNg) IC50) was 0.657 nM.
`CC[C@H](C)[C@@H]1NC(=O)[C@@H](NC(=O)[C@H](CO)NC(=O)[C@@H](N)CCCNC(=N)N)CSSC[C@@H](C(=O)N[C@@H](C)C(=O)O)NC(=O)[C@H]([C@@H](C)O)NC(=O)CNC(=O)[C@@H]2CSSC[C@@H]3NC(=O)[C@H](CCCCN)NC(=O)[C@H](Cc4ccccc4)NC(=O)[C@H](C)NC(=O)[C@H]([C@@H](C)O)NC(=O)[C@H](CSSC[C@H](NC(=O)[C@H](Cc4ccccc4)NC(=O)[C@H](CO)NC(=O)[C@H](CC(C)C)NC(=O)[C@H](CCCNC(=N)N)NC(=O)[C@H](Cc4ccc(O)cc4)NC(=O)[C@H](CCCCN)NC(=O)[C@H](CCSC)NC(=O)[C@H](CO)NC(=O)[C@H](Cc4c[nH]cn4)NC(=O)[C@H](CCCCN)NC3=O)C(=O)N[C@@H](CCCNC(=N)N)C(=O)N[C@@H](CCCCN)C(=O)N[C@@H]([C@@H](C)O)C(=O)N2)NC(=O)[C@H](CCCNC(=N)N)NC(=O)[C@H](CO)NC(=O)[C@H](CCCCN)NC(=O)[C@@H]2CCCN2C(=O)[C@H]([C@@H](C)CC)NC(=O)[C@H]([C@@H](C)O)NC(=O)[C@H](CC(=O)O)NC1=O` [[Lys16]ShK-Ala] showed an IC50 ([1]; read-out: IC50 blocking IL-2 secretion from human whole blood) of 0.138 nM, an IC50 ([1]; read-out: WB (IL-2) IC50) of 0.138 nM and an IC50 [1, 9] of 0.138 nM. It also gave an IC50 (hKv1.3 [5]) of 9.5 nM, an IC50 (hKv1.3 [6]) of 0.06 nM and an IC50 ([4]; read-out: WB (IFNg) IC50) of 0.266 nM. For the same molecule, the IC50 [4, 10] was 0.266 nM.
In the case of `CCC[C@@H]1NC(=O)[C@H](CO)NC(=O)[C@H]([C@@H](C)O)NC(=O)[C@H](CCCNC(=N)N)NC(=O)[C@@H]2CSSC[C@@H]3NC(=O)[C@H]([C@@H](C)O)NC(=O)[C@H](CCCCN)NC(=O)[C@H](CCCNC(=N)N)NC(=O)[C@H](CSSC[C@H](NC(=O)[C@H](CCC(=O)O)NC(=O)[C@H](CO)NC(=O)[C@H](C(C)C)NC(=O)[C@@H]4CCCN4C(=O)[C@H]([C@@H](C)CC)NC(=O)[C@H](CC(C)C)NC(=O)[C@H](CC(=O)O)NC(=O)[C@H](CCCCN)NC(=O)[C@@H](NC(=O)[C@@H](NC(=O)[C@@H](N)CCCNC(=N)N)[C@@H](C)O)CSSC[C@@H](C(N)=O)NC(=O)[C@H](CO)NC(=O)CNC3=O)C(=O)N[C@@H]([C@@H](C)O)C(=O)N[C@@H](CC(=O)O)C(=O)N[C@@H]([C@@H](C)CC)C(=O)N[C@@H](CCCCN)C(=O)N2)NC(=O)[C@H](CC(C)C)NC(=O)[C@H](CC(N)=O)NC(=O)[C@H](CC(C)C)NC(=O)[C@H](CCCNC(=N)N)NC(=O)[C@H](Cc2ccc(O)cc2)NC(=O)[C@H](CCCCN)NC1=O` [[Lys16, Nva21]HmK-amide] (H-RTCKDLIPVSECTDIKCRTS[Nva]KYRLNLCRKTCGSC-NH2; disulfide 3-35, 12-28, 17-32), the “WB (IL-2) Potency Relative to ShK” value [1] is reported as 148.53, the IC50 [1, 9] is reported as 6.39 nM and the “Kv1.1/Kv1.3 Selectivity Ratio” value (hKv1.3 [5]) is reported as 0.025. The IC50 (hKv1.3 [5]) was 23 nM, the IC50 (hKv1.1) was 0.58 nM and the “WB (IFNg) Potency Relative to ShK” value [4] was 188.96. It also gave an IC50 [4, 10] of 9.83 nM.
In the case of “PEG-[1-Nal 16]ShK: PEG conjugate of the 1-Nal16 analog of ShK, relatively Kv1.3-inactive (RSCIDTIPKSRCTAFXCKHSMKYRLSFCRKTCGTC; PEG; ShK PEGylated toxin peptide analog; PEGylated; 3-(1-naphthyl)alanine)”, the “Times less activity of the PEG conjugate than of the free peptide (Kv1.3)” value (hKv1.3 [5]) is reported as “about 57 times” and the “Molar AUC exposure compared with PEG-[Lys16]ShK and anti-KLH Ab-[Lys16]ShK” value [7] is reported as 6-8 ×.
